Where a name gives a salt, the structure may show the parent alone. Read-outs that look alike come from different tables or passages of the source.
Columns and labels:
F508del CFTR = molecular target: T1, F508del CFTR (Homo sapiens, UniProt P13569, DEL508-508); assay: YFP fluorescence quenching functional assay (iodide influx), HEK293 cells with F508del CFTR and halide sensitive YFP; assay type: cell-based; conditions: for remaining activity at 10 µM: read-out: % YFP quench
T1 construct: expressed in transfected cells; host or cells: HEK293 Griptite cells stably expressing F508del CFTR, transiently transfected with halide-sensitive eYFP
Method: In addition to the MDS compounds, the 1120 Prestwick Library compounds were screened. (See FIGS. 7 to 12.) Of the compounds, one qualified as a “strong” hit, 3 as “medium” hits and 57 as “weak” hits. The Z score for the assay was 0.62. The top 50 hits were further tested in a counter screen in which the halide sensitive fluorescent compound (YFP) was expressed inside cells (Table 2). After incubation with the test compounds the ability of the cells to uptake iodide was measure by decreasing YFP fluorescence. In these cells this can only occur if functional CFTR is present at the cell surface (FIG. 7). The hits were also tested for the appearance of the Band C form of CFTR. […] The functionality of the compounds was further studied by the use of Iodide efflux assays for each compound in both BHK and the more physiologically relevant CFBE cells. […] FIG. 10 is a table of results for the 15 hit compounds which summarizes many experiments. […] The results for the best 15 compounds from the Prestwick Library, or “Prestwick 15”, are shown FIGS. 8, 9 and 10.
Strongly adhesive Human […] Kidney cells stably expressing both the human macrophage scavenger receptor (HEK293 Griptite, Invitrogen) and F508del CFTR were plated in 96-well plates and transiently transfected with pcDNA3 plasmid encoding a halide sensitive variant of eYFP. After 24-48 h later cells were exposed to 10 μM test compound in triplicate and incubated for an additional 24 h. Cells were stimulated for 20 minutes with a in a buffer containing 25 μM forskolin, 45 μM IBMX and 50 μM genistein final concentration. The high content screening assay was performed using a Cellomics platform. Iodide was added robotically to a final concentration of 50 mM and the resulting decrease in fluorescence was measured. Images were taken at time 0 and stored for subsequent use when calculating a mask so that only those cells that express YFP at time 0 are measured. The quenching was detected in 15 images taken over the course of an experiment lasting 40 seconds. Each test compound was compared to the following two controls: a negative control without drugs to assess photobleaching that may occur when the same field of view is repeatedly imaged, and a positive control with cells treated with a known potentiator. Results were generated from 150-300 cells per well.

ΔF508-CFTR = ΔF508-CFTR (Homo sapiens, UniProt P13569, DEL508-508); assay type: cell-based; set-up: which was then ligated into full length pNUT-CFTR linearized using Hpa1 and Pml1; expressed in transfected cells; conditions: for hit in screen (class letter) / hit in screen (score): Prestwick library, initial corrector assay; for hit in screen (class letter) / ΔF508-CFTR correctors identified by highthroughput screening: hit class: BHK cells; for hit in screen (score): standard deviations above untreated controls; for signal in the trafficking assay / ΔF508-CFTR correctors identified by highthroughput screening: hit class: Microsource Discovery library, 20 μM; for signal in the trafficking assay: medium and weak hits; for ΔF508-CFTR correctors identified by highthroughput screening: hit class: 37° C.
Method: BHK cells expressing 3HA-tagged ΔF508-CFTR between passages 5-8 were seeded in 96-well plates (Corning half area, black-sided, clear bottom) at 15,000 cells per well and incubated with culture medium for 24 h at 37° C. Each well was then treated with a different test compound (80 compounds per plate) for 24 h at 20 μM final concentration. The remaining 16 wells on each plate were used for control conditions. […] Cells were fixed in a 4% paraformaldehyde solution, washed with PBS, and blocked with PBS containing 5% fetal bovine serum (FBS) for 1 hat 4° C.
Blocking solution was replaced with 15 μl of primary antibody solution containing 1% FBS and mouse monoclonal anti-HA antibody (1:150 dilution, Sigma) in PBS. The plates were sealed and left at 4° C. overnight. After three washes with 100 μl PBS, cells were incubated for 1 h with 15 μl of secondary antibody solution containing 1% FBS and anti-mouse IgG conjugated with FITC (1:100 dilution, Sigma) in PBS. Cells were again washed three times with 100 μl of PBS and analyzed in a plate reader (Analyst™ HT96.384, Biosystems; 488 nm excitation/510 nm emission). […] The mean fluorescence of four untreated wells was used as the background signal when calculating deviations of the 80 compound-treated wells. Hits were then cherry-picked into reservoir plates and re-tested in duplicate using the same assay.
BHK cells expressing ΔF508-CFTR were incubated with test compounds (20 μM) for 24 hours at 37° C. in a 96 well format. Plasma membrane expression of ΔF508-CFTR was then assayed by immunofluorescence using a primary antibody directed against the inserted 3HA tag and a secondary antibody conjugated with a fluorophore (FITC). […] The positive compounds were selected and retested in duplicate to obtain an N of 3. At the re-screening stage, the intrinsic fluorescence of each potential hit was also measured and the fluorescent ones were not considered further.
Screening was performed using BHK cells that stably express F508-CFTR bearing three tandem haemagglutinin-epitope tags (3HA) and linker sequences in the fourth extracellular loop after amino acid 901 (Howard et al., 1995; Carlile et al., 2007; Robert et al., 2008). […] Screening was performed using the Prestwick Chemical Library of 1120 high-purity compounds.

[1] = HEK293, 10 μM, 24 h, nc = 100% pc = 69.2
[2] = 10 μM, 24 h, nc = 100% pc = 69.2

ΔF508-CFTR, sequence (P13569 with tags, fused parts or gaps DEL508-508): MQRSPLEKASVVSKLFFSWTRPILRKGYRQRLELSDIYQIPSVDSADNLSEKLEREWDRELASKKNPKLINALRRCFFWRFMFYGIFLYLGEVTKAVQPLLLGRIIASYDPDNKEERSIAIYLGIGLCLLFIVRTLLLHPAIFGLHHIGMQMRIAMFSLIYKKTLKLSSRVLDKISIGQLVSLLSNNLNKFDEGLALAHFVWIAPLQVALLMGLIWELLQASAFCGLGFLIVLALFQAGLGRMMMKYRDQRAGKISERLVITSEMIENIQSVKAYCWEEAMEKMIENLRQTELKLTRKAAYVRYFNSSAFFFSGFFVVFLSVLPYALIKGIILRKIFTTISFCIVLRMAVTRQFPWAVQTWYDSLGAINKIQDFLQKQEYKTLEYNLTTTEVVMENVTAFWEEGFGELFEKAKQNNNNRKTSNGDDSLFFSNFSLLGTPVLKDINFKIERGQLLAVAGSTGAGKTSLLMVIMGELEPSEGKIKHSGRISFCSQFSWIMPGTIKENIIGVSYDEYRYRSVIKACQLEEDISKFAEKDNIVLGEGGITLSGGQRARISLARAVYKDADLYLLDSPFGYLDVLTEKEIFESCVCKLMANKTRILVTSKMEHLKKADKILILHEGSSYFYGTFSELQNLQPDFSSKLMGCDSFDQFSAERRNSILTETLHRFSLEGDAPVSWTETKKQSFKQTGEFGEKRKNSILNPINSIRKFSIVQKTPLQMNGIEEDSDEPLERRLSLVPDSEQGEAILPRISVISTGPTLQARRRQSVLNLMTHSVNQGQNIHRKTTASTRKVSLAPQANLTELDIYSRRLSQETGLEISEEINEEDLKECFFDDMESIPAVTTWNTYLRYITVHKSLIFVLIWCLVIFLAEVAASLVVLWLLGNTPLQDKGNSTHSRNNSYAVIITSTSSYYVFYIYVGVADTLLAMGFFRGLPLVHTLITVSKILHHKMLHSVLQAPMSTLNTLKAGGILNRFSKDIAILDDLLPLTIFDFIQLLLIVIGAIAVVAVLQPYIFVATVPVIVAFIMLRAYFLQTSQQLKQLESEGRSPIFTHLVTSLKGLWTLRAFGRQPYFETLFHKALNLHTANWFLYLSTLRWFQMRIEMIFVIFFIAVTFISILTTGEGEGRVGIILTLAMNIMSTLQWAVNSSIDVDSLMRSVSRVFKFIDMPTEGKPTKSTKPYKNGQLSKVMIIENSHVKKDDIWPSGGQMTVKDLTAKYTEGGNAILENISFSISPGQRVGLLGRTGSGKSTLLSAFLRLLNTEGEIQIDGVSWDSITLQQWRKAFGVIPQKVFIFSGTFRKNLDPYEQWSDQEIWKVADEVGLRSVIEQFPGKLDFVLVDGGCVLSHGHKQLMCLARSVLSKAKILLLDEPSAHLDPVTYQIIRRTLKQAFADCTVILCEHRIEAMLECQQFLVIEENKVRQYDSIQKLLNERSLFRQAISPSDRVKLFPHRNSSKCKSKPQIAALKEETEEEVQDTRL
T1 sequence (P13569 with tags, fused parts or gaps DEL508-508): as above

## CC1=CC(=O)C2=C(C)C[C@H](O)[C@@H]3[C@H](OC(=O)[C@H]3C)[C@H]12 [Austricine hydrate]
F508del CFTR; [1]
  remaining activity at 10 µM: 91%
ΔF508-CFTR
  hit in screen (class letter): W (Medium and weak hits were defined as compounds giving a cell fluorescence signal that was between 2 and 3 or 1 and 2 standard deviations, respectively, above untreated control wells)
  hit in screen (score): 1.1

## CN(Cc1cc(Br)cc(Br)c1N)C1CCCCC1 [bromhexine]
ΔF508-CFTR; 24 hours
  signal in the trafficking assay: consistently elevated signal

## c1ccc2[nH]c(-c3cscn3)nc2c1 [Tiabendazole]
F508del CFTR; [1]
  remaining activity at 10 µM: 907%
ΔF508-CFTR
  hit in screen (class letter): W (Medium and weak hits were defined as compounds giving a cell fluorescence signal that was between 2 and 3 or 1 and 2 standard deviations, respectively, above untreated control wells)
  hit in screen (score): 1.0

## C[C@]12CC[C@H](O)CC1=CC[C@@H]1[C@@H]2CC[C@]2(C)C(=O)CC[C@@H]12 [dyhydroepiandrosterone]
ΔF508-CFTR; 24 hours
  signal in the trafficking assay: consistently elevated signal

## c1ccc(CNc2ncnc3[nH]cnc23)cc1 [Aminopurine, 6-benzyl]
F508del CFTR; [2]
  % YFP quench: 89%
ΔF508-CFTR
  hit in screen (class letter): W (Medium and weak hits were defined as compounds giving a cell fluorescence signal that was between 2 and 3 or 1 and 2 standard deviations, respectively, above untreated control wells)
  hit in screen (score): 1.6

## C[C@]12CCC(=O)C=C1CC[C@@H]1[C@@H]2[C@@H](O)C[C@@]2(C)[C@H]1CC[C@]2(O)C(=O)CO [Hydrocortisone base]
F508del CFTR; [2]
  % YFP quench: 94%
ΔF508-CFTR
  hit in screen (class letter): W (Medium and weak hits were defined as compounds giving a cell fluorescence signal that was between 2 and 3 or 1 and 2 standard deviations, respectively, above untreated control wells)
  hit in screen (score): 1.1

## N.N.O=C([O-])C1(C(=O)[O-])CCC1.[Pt+2] [carboplatin]
ΔF508-CFTR; 24 hours
  ΔF508-CFTR correctors identified by highthroughput screening: hit class: strong hits

## O=C1CCC(N2C(=O)c3ccccc3C2=O)C(=O)N1 (centres unmarked) [Thalidomide]
F508del CFTR; [1]
  remaining activity at 10 µM: 92%
ΔF508-CFTR
  hit in screen (class letter): M (Medium and weak hits were defined as compounds giving a cell fluorescence signal that was between 2 and 3 or 1 and 2 standard deviations, respectively, above untreated control wells)
  hit in screen (score): 2.0

## Oubinidine
F508del CFTR; [2]
  % YFP quench: 104%
ΔF508-CFTR
  hit in screen (class letter): W (Medium and weak hits were defined as compounds giving a cell fluorescence signal that was between 2 and 3 or 1 and 2 standard deviations, respectively, above untreated control wells)
  hit in screen (score): 1.2

## CCn1cc(C(=O)O)c(=O)c2cc(F)c(N3CCNCC3)nc21 [Enoxacin]
F508del CFTR; [1]
  remaining activity at 10 µM: 84%
ΔF508-CFTR
  hit in screen (class letter): W (Medium and weak hits were defined as compounds giving a cell fluorescence signal that was between 2 and 3 or 1 and 2 standard deviations, respectively, above untreated control wells)
  hit in screen (score): 1.0

## Cl.OC(CCN1CCCC1)(c1ccccc1)C1CCCCC1 (centres unmarked) [Procycildine hydrochloride]
F508del CFTR; [2]
  % YFP quench: 92%
ΔF508-CFTR
  hit in screen (class letter): W (Medium and weak hits were defined as compounds giving a cell fluorescence signal that was between 2 and 3 or 1 and 2 standard deviations, respectively, above untreated control wells)
  hit in screen (score): 1.1

## CCN1C[C@]2(COC)CC[C@H](O)[C@@]34C5C[C@@H]6[C@@H](OC)C[C@](O)(C(CC23)C14)C5[C@H]6OC(C)=O (some centres unmarked) [Condelphine]
F508del CFTR; HEK293, 24 h
  remaining activity at 10 µM: 97%
ΔF508-CFTR
  hit in screen (class letter): W (Medium and weak hits were defined as compounds giving a cell fluorescence signal that was between 2 and 3 or 1 and 2 standard deviations, respectively, above untreated control wells)
  hit in screen (score): 1.6

## CC(C(=O)O)c1cccc(Oc2ccccc2)c1 (centres unmarked) [Fenoprofen calcium salt dihydrate]
F508del CFTR; [1]
  remaining activity at 10 µM: 88%
ΔF508-CFTR
  hit in screen (class letter): W (Medium and weak hits were defined as compounds giving a cell fluorescence signal that was between 2 and 3 or 1 and 2 standard deviations, respectively, above untreated control wells)
  hit in screen (score): 1.1

## didectylkhivorin
ΔF508-CFTR; 24 hours
  signal in the trafficking assay: consistently elevated signal

## 1-deacetoxy-1-oxo-3,7 dideactyl khivorin
ΔF508-CFTR; 24 hours
  signal in the trafficking assay: consistently elevated signal

## CC1(C)[C@@H](O[C@H]2O[C@H](C(=O)O)[C@@H](O)[C@H](O)[C@H]2O[C@@H]2O[C@H](C(=O)O)[C@@H](O)[C@H](O)[C@H]2O)CC[C@]2(C)[C@H]3C(=O)C=C4[C@@H]5C[C@@](C)(C(=O)O)CC[C@]5(C)CC[C@@]4(C)[C@]3(C)CC[C@@H]12 [glycyrrhizic acid]
ΔF508-CFTR; 24 hours
  ΔF508-CFTR correctors identified by highthroughput screening: hit class: strong hits

## NC(=O)N/N=C/c1ccc([N+](=O)[O-])o1 [Nitrofural]
F508del CFTR; [1]
  remaining activity at 10 µM: 94%

## CC(=O)O[C@H]1C[C@@H](OC(C)=O)C(C)(C)[C@@H]2C[C@@H](OC(C)=O)[C@]3(C)[C@H](CC[C@@]4(C)[C@H](c5ccoc5)OC(=O)[C@H]5O[C@@]534)[C@@]12C [khivorin]
ΔF508-CFTR; 24 hours
  signal in the trafficking assay: consistently elevated signal

## O=c1c(-c2ccc(O)cc2)coc2cc(O)ccc12 [daidzein]
ΔF508-CFTR; 24 hours
  signal in the trafficking assay: consistently elevated signal

## Cc1[nH]ccc2c1[nH]c1cc(=O)ccc12 [Harmol hydrochloride dihydrate]
F508del CFTR; [1]
  remaining activity at 10 µM: 92%

## O=C1N[C@@H]2[C@@H](O)[C@@H](O)[C@H](O)[C@@H](CO)N2C1=O [kifunesine]
ΔF508-CFTR; kifunesine 100 μM, Sodium 4 Phenylbutyrate 1 mM, curcumin 40 μM, 24 hours
  increase in signal, suitability as positive control for the corrector assay screen: not sufficient to act as a positive control

## C[C@]12CCC3C(CC[C@H]4C[C@@H](Cl)CC[C@]34C)C1CCC2=O (stereo partly drawn) [3-beta chloroandrostanone]
ΔF508-CFTR; 24 hours
  signal in the trafficking assay: consistently elevated signal

## COC(=O)c1c(Cl)c(Cl)c(C(=O)OC)c(Cl)c1Cl [dacthal]
ΔF508-CFTR; 24 hours
  ΔF508-CFTR correctors identified by highthroughput screening: hit class: strong hits

## O=C(N[C@H](CO)[C@H](O)c1ccc([N+](=O)[O-])cc1)C(Cl)Cl [chloramphenicol]
ΔF508-CFTR; 24 hours
  ΔF508-CFTR correctors identified by highthroughput screening: hit class: strong hits
